Patent US20110065674A1, “METHODS AND COMPOSITIONS FOR IMPROVING COGNITIVE FUNCTION” (priority 2008, published 2011)
“Also recorded” adds a separate entry of the source.

Key:
[1] = system: Age-Impaired (AI) Long-Evans rats; assay: 24 hour-delay Morris Water Maze memory retention trial in aged-impaired rats; format: in vivo, rat; details: for spatial memory retention (time in target quadrant) in 24-hr retention trial: donepezil alone 0.5, 1.0 and 2.0 mg/kg i.p. before training
Procedure: Age-Impaired (AI) Long-Evans rats (as characterized above) were tested for their memory of new spatial information in the MWM, under different drug/control treatment conditions: vehicle control, donezepil only, VPA only, and combination of VPA and donezepil. Donezepil was administered at a range of doses (0.5, 1.0 or 2.0 mg/kg) 30 minutes to 1 hour prior to training trials. VPA was administered chronically and subcutaneously at a rate of 100 mg/kg/day via implanted osmotic minipump.
AI rats were given six training trials per training day with a 60-sec inter-trial interval between each training trial for two consecutive days. On each training trial, the rat was released in the maze from one of four equally spaced starting positions around the perimeter of the pool. […] 30 minutes to 1 hour prior to all the training trials on each training day, AI rats were pretreated with one of four drug conditions: 1) vehicle control (0.9% saline solution); 2) 0.5 mg/kg donpepzil; and 3) 1.0 mg/kg donpepzil; and 4) 2.0 mg/kg donpepzil through intraperitoneal (i.p.) injection.
The same AI rats were used for the entire set of experiments so that each treatment condition was tested on each of the rats. Therefore, to counterbalance any potential bias, both the location of the escape platform and the spatial cues surrounding the water maze were different in the four treatment conditions. In other words, using one set of locations and spatial cues, two rats were treated with saline control solution, two with 0.5 mg/kg donpepzil, two with 1.0 mg/kg donpepzil and two with 2.0 mg/kg donpepzil. These groups were cycled through 3 more sets of locations and spatial cues, with each group of two receiving a different treatment each time, so that at the end, each treatment condition was tested in eight rats.
After the completion of the twelve training trials (over the two days), the rats were returned to their home cages in the colony room for a 24-hr waiting period, in preparation for the subsequent memory retention test. After the waiting period, the rat was given one testing trial (the “retention trial”), which was the same MWM task as the training trials, but with the escape platform removed.
For the retention trial, the MWM circular pool was divided into 4 quadrants. The particular quadrant where the escape platform was placed in the training trials is referred to as the “target quadrant”. The particular region where the platform was located in the training trials is referred to as the “target annulus”. In the retention trial, the time the AI rats spent swimming in the target quadrant was measured and further plotted as a percentage of total swimming time. The time the AI rats spend in the target annulus was also measured. […]

[2] = Blood total VPA level under chronic subcutaneous administration; format: in vivo, rat; details: chronic subcutaneous administration of 100 mg/kg/day
Procedure: (§1) AI Rats were treated with sodium valproate (“VPA”) chronically and subcutaneously at a rate of 100 mg/kg/day via implanted osmotic minipump, and then trained and tested in a new water maze environment. The water maze used here was housed in a different building and was surrounded by black curtains with a novel set of white patterns. The training protocol used was based on a modified water maze task known to be highly hippocampal-dependent (de Hoz et al., 2005; Steele & Morris, 1999). Unlike the traditional water maze protocol (such as that used in the background assessment, described above) wherein the escape platform location remained constant throughout training, the escape platform location in this spatial memory version of the task varied from day to day.
After the 6-hr waiting period, the rats were returned to the water maze for a test of spatial memory with the submerged platform located in the same position as in the training trials. Each rat was given 60 s to locate the platform. Rats were trained and tested in this manner for five consecutive days. Performances on the last three days were averaged for analysis. […] The chronic subcutaneous administration of 100 mg/kg/day VPA results in a blood total VPA level of 10 μg/ml plasma (10 μg/ml total VPA).

[3] = system: muscarinic receptor; assay: Muscarinic receptor-stimulated GTP-Eu binding assay on hippocampal membranes of treated rats; format: biochemical, rat; details: chronic low dose valproate, memory impaired aged rats, vs vehicle treated; FIG. 1
Procedure: Membrane preparation: Rats were decapitated and the hippocampus was dissected on ice then frozen at −80° C. All the tissue was stored in −80° C. and processed for GTP-Eu binding. For the GTP-Eu binding assay, membranes were prepared from frozen tissue by gentle homogenization with a Dounce homogenizer in five volumes of ice-cold 50 mM Tris buffer, pH 7.4, containing 0.2 mM EGTA and protease inhibitors. After centrifuging at 40,000×g at 4° C. for 10 min, the pellets were resuspended in 30 ml of ice-cold Tris buffer. The steps described above were repeated twice, and then the final pellets were resuspended in assay buffer (50 mM Tris, 0.2 mM EGTA, 5 mM MgCl2, and 100 mM NaCl, pH 7.4) (Zhang et al 2007).
Muscarinic receptor-stimulated GTP-Eu binding assay. GTP-Eu binding was assessed using time-resolved fluorescence (Wallac 1420, Perkin-Elmer). The membranes and all the reagents were diluted with assay buffer. Samples were added into a 96-well filter plate in a counter-balanced manner based upon age and behavioral performance, although the experimenter was blind to the identification of the groups at the time of the assay. […] The integration of GTP-Eu into the membrane was measured by excitation of the samples at 340 nm and reading the emission at 615 nm using time-resolved fluorescence (Zhang et al 2007, Nicolle et al 1999). […]

[4] = system: memory impaired aged rats; assay: 6 hour-delay water maze spatial memory task in aged-impaired rats; format: in vivo, rat; details: AI rats, FIG. 2
Procedure: as §1
The test was comprised of a training phase followed by a memory retention test. Each day, during the training phase, rats were given six trials to locate the submerged escape platform. On each trial, a rat was released in the maze from one of four equally spaced starting positions around the perimeter of the pool. The starting position varied from trial to trial. […] The rat was then removed from the platform and placed in a holding cage for another 40 s before the next trial. The length of the path the rat took while swimming in the maze was measured in each trial. […]

Row | SMILES | spatial memory retention (time in target quadrant) in 24-hr retention trial ([1]; FIG. 3) | spatial memory retention (time in target quadrant) in 24-hr retention trial ([1]; FIG. 3, listed as Donezepil) | spatial memory retention in 24-hr retention trial ([1]; VPA only, 100 mg/kg/day chronic s.c. minipump, FIG. 3, 100 mg/kg/day) | blood total VPA level [2] | muscarinic receptor-stimulated GTP-Eu binding in the hippocampus (percentage of young rat) [3] | memory retention (forgetting, path length) after a 6-hr delay ([4]; VPA 100 mg/kg/day chronic s.c. minipump, vs saline or VPA 50 mg/kg/day) | performance (path length) at the end of the training phase ([4]; chronic s.c. minipump, Trials 1-6, compared with saline)
1 | COc1cc2c(cc1OC)C(=O)C(CC1CCN(Cc3ccccc3)CC1)C2 (stereo not shown) [donezepil, donepezil] | did not significantly improve | no effect |  |  |  |  | 
2 | CCCC(CCC)C(=O)[O-].[Na+] [VPA, sodium valproate] |  |  | no improvement seen | 10 μg/ml plasma | effectively restore post-synaptic muscarinic coupling; also recorded: increases muscarinic receptor-GTP-Eu binding | showed less forgetting; also recorded: improved the performance | performed at a comparable level
